These results are taken from patent US20250115577A1, “BCL-2 Inhibitors” (Eil Therapeutics, Inc., priority 2021, published 2025).

What is called IC50 is the point on the concentration scale where inhibition reaches its midpoint. In general, CC50 refers to the concentration at which the toxic effect on the cells reaches its halfway point. A higher CC50 goes with lower toxicity to the cells.

The target of one data set is BCL-2 [G101V] (Homo sapiens (Human), UniProt P10415, G101V). Briefly: BCL-2 [G101V] TR-FRET Assay (primary PPI inhibition). It counts as binding. The following applies: 60 min incubation, read-out: BCL2[G101V] IC50. How it is done: Example C. BCL-2 [G101V]TR-FRET Assay
The following assay concentrations and times were used: 0.22 ng/μl of BCL-2 (SinoBiological, #10195-H08E1), 5 μL of 1:100 anti-His Tb-labeled donor, 5 μL of 1:100 Dye-labeled acceptor, 5 μL of 1:40 BCL-2 Peptide Ligand (BPS Bioscience, #50223), and 2 μL of 200× test compound, with 60 min incubation time (final concentration of DMSO 0.5%). The results of the assay were read using a plate reader with the following parameters: TR FRET, 340ex/620 and 665em; 60 usec Delay; and 500 usec integration.
Instrumentation: CLARIOstar Plus (BMG LABTECH); Biomek FX for liquid handling (Beckman Coulter).
A general note: TR-FRET usually uses a lanthanide donor and a delayed reading to cut background.

The nature of data set [1]: Cell viability assay (CellTiter-Glo), HEK293. It counts as cell-based. The following applies: human, HEK293 cells, 3 days of incubation. The gist of the method: (§1)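 4000 cells/well in DMEM (HEK293, adhered overnight) or RPMI (RS4-11, MOLT-4) with 10% FBS; compounds added at 0.2% DMSO final. After 3 days, viability read by CellTiter-Glo luminescence.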
In general terms: Cellular ATP, detected with luciferase, serves as a proxy for viable cell number.

In the next data set the test system is MOLT-4 cells. The experiment in a line: Cell viability assay (CellTiter-Glo), MOLT-4. It is filed as cell-based. The following applies: Homo sapiens, 72 h, 3 days of incubation. The gist of the method: as §1
The test system of data set [2] is caspase-3 and -7 activities in RS4-11 cells. Briefly: Caspase-3/7 activation (Caspase-Glo 3/7) in RS4-11 cells. It is filed as cell-based. The following applies: Homo sapiens, 3.5 h, read-out: Cas-3/7 EC50. The essentials: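 RS4-11 cells exposed to graded compound concentrations for 3.5 h at 37 °C, 5% CO2. Caspase-3/7 activity then read as luminescence after 30 min at rt with a DEVD-based luminogenic substrate reagent.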

Another data set addresses BCL-xL (Homo sapiens (Human), UniProt Q07817). Briefly: BCL-xL TR-FRET Assay (primary PPI inhibition). It is filed as binding. Particulars: 60 min incubation, read-out: BCLxL IC50. The essentials: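 TR-FRET competition of His-tagged BCL-xL (10.5 ng) binding to dye-labeled peptide ligand, with anti-His Tb donor; compound added from 200× stock, 0.5% DMSO final. After 60 min incubation, read at 340 nm excitation, 620/665 nm emission, 60 µs delay, 500 µs integration.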

The subject of the next data set is RS4-11 cells. Briefly: Cell viability assay (CellTiter-Glo), RS4-11. It is filed as cell-based. The following applies: Homo sapiens, RS4-11, 72 h, 3 days of incubation. The gist of the method: as §1
The target of a further data set is BCL-2 (Homo sapiens (Human), UniProt P10415). The experiment in a line: BCL-2 TR-FRET Assay (primary PPI inhibition). It is filed as binding. The following applies: 60 min incubation, read-out: BCL2 IC50. The essentials: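 His-tagged BCL-2 (3 ng) with anti-His Tb donor, dye-labeled acceptor and BCL-2 peptide ligand; compound added at 200× stock, final DMSO 0.5%. 60 min incubation, then TR-FRET read at 340 nm excitation, 620/665 nm emission, 60 µs delay, 500 µs integration.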

Chain of BCL-xL (Q07817 whole entry): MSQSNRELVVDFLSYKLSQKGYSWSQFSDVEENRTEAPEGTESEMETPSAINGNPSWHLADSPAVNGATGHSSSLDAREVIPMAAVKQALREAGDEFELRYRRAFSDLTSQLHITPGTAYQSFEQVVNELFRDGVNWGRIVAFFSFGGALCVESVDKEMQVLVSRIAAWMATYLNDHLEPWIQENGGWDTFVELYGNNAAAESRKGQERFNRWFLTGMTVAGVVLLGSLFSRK

With `COc1cccc(CN(C(=O)c2cc(-c3cc(Cl)c(C#N)cc3C(=O)N3Cc4ccccc4C[C@H]3CN3CCOCC3)n(C)c2C)c2ccc(O)cc2)c1C` [Compound 9, 5-[5-chloro-4-cyano-2-[(3S)-3-(morpholinomethyl)-3,4-dihydro-1H-isoquinoline-2-carbonyl]phenyl]-N-(4-hydroxyphenyl)-N-[(3-methoxy-2-methyl-phenyl)methyl]-1,2-dimethyl-pyrrole-3-carboxamide], the IC50 at BCL-2 [G101V] was 100 to 1000 nM; on BCL-xL, 2000 to 5000 nM; at BCL-2, at most 5 nM. In addition, the CC50 at 3 days in data set [1] was in the range of 10000 to 25000 nM. Further, the CC50 was at most 5000 nM in the data set with MOLT-4 cells and above 200 nM in the data set with RS4-11 cells. Moreover, in data set [2], the EC50 was above 500 nM.
For `COc1cc(C(=O)N2Cc3ccccc3C[C@H]2CN2CCOCC2)c(-c2cc(C(=O)N(Cc3cccc(OC)c3C)c3ccc(O)cc3)c(C)n2C)cc1Cl` [Compound 11, 5-[5-chloro-4-methoxy-2-[(3S)-3-(morpholinomethyl)-3,4-dihydro-1H-isoquinoline-2-carbonyl]phenyl]-N-(4-hydroxyphenyl)-N-[(3-methoxy-2-methyl-phenyl)methyl]-1,2-dimethyl-pyrrole-3-carboxamide], the IC50 fell in the range of 100 to 1000 nM on BCL-2 [G101V], 2000 to 5000 nM at BCL-xL and 10 to 50 nM on BCL-2. For the same molecule, the CC50 at 3 days in data set [1] is above 25000 nM. Moreover, the CC50 was at most 5000 nM in the data set with MOLT-4 cells and 100 to 200 nM in the data set with RS4-11 cells. Further, the EC50 in data set [2] was at most 200 nM.
Take `COc1cccc(CN(C(=O)c2cc(-c3cc(F)c(OC(F)F)cc3C(=O)N3Cc4ccccc4C[C@H]3CN3CCOCC3)n(C)c2C)c2ccc(O)cc2)c1C` [Compound 16, 5-[4-(difluoromethoxy)-5-fluoro-2-[(3S)-3-(morpholinomethyl)-3,4-dihydro-1H-isoquinoline-2-carbonyl]phenyl]-N-(4-hydroxyphenyl)-N-[(3-methoxy-2-methyl-phenyl)methyl]-1,2-dimethyl-pyrrole-3-carboxamide]: the figures for the IC50 at BCL-2 [G101V], at BCL-xL and at BCL-2 were above 1000 nM, 2000 to 5000 nM and 5 to 10 nM, respectively. Besides, the CC50 at 3 days in data set [1] is above 25000 nM. Also, the results for the CC50 in the data set on MOLT-4 cells and in the data set with RS4-11 cells were at most 5000 nM and above 200 nM, respectively. For the same molecule, the EC50 in data set [2] is 200 to 500 nM.
With `COc1cc(C(=O)N2Cc3ccccc3C[C@H]2CN2CCOCC2)c(-c2cc(C(=O)N(Cc3cccc(OC)c3C)c3ccc(O)cc3)c(C)n2C)cc1F` [Compound 21, 5-[5-fluoro-4-methoxy-2-[(3S)-3-(morpholinomethyl)-3,4-dihydro-1H-isoquinoline-2-carbonyl]phenyl]-N-(4-hydroxyphenyl)-N-[(3-methoxy-2-methyl-phenyl)methyl]-1,2-dimethyl-pyrrole-3-carboxamide], the IC50 lay within 100 to 1000 nM at BCL-2 [G101V], 2000 to 5000 nM on BCL-xL and 10 to 50 nM on BCL-2. For the same molecule, the CC50 at 3 days in data set [1] was above 25000 nM. The CC50 is at most 5000 nM in the data set with MOLT-4 cells and 100 to 200 nM in the data set on RS4-11 cells. For the same molecule, the EC50 in data set [2] was at most 200 nM.
Consider `COc1cccc(CN(C(=O)c2cc(-c3ccc(OC(F)F)cc3C(=O)N3Cc4ccccc4C[C@H]3CN3CCOCC3)n(C)c2C)c2ccc(O)cc2)c1C` [Compound 31, 5-[4-(difluoromethoxy)-2-[(3S)-3-(morpholinomethyl)-3,4-dihydro-1H-isoquinoline-2-carbonyl]phenyl]-N-(4-hydroxyphenyl)-N-[(3-methoxy-2-methyl-phenyl)methyl]-1,2-dimethyl-pyrrole-3-carboxamide], for which the IC50 on BCL-2 [G101V] is above 1000 nM; on BCL-xL it was 2000 to 5000 nM; on BCL-2 it was 5 to 10 nM. For the same molecule, in data set [1], the CC50 at 3 days was above 25000 nM. Moreover, the results for the CC50 in the data set on MOLT-4 cells and with RS4-11 cells were at most 5000 nM and above 200 nM, respectively. Besides, the EC50 in data set [2] is above 500 nM.
As to `COc1cccc(CN(C(=O)c2cc(-c3cc(Cl)c(OC(F)F)cc3C(=O)N3Cc4ccccc4C[C@H]3CN3CCOCC3)n(C)c2C)c2ccc(O)cc2)c1C` [Compound 36, 5-[5-chloro-4-(difluoromethoxy)-2-[(3S)-3-(morpholinomethyl)-3,4-dihydro-1H-isoquinoline-2-carbonyl]phenyl]-N-(4-hydroxyphenyl)-N-[(3-methoxy-2-methyl-phenyl)methyl]-1,2-dimethyl-pyrrole-3-carboxamide], the half-inhibitory concentration (IC50) at BCL-2 [G101V] fell in the range of 100 to 1000 nM; at BCL-xL it was 2000 to 5000 nM; at BCL-2, 5 to 10 nM. Also, the CC50 at 3 days in data set [1] was above 25000 nM. Besides, the CC50 with MOLT-4 cells is 5000 to 10000 nM; in the data set with RS4-11 cells it was above 200 nM. The EC50 in data set [2] is above 500 nM.
`COc1cccc(CN(C(=O)c2cc(-c3cc(C(F)F)c(Cl)cc3C(=O)N3Cc4ccccc4C[C@H]3CN3CCOCC3)n(C)c2C)c2ccc(O)cc2)c1C` [Compound 43, 5-[4-chloro-5-(difluoromethyl)-2-[(3S)-3-(morpholinomethyl)-3,4-dihydro-1H-isoquinoline-2-carbonyl]phenyl]-N-(4-hydroxyphenyl)-N-[(3-methoxy-2-methyl-phenyl)methyl]-1,2-dimethyl-pyrrole-3-carboxamide]: the concentration for half-maximal inhibition (IC50) on BCL-2 [G101V] was 100 to 1000 nM; at BCL-xL, 2000 to 5000 nM; on BCL-2 it was at most 5 nM. For the same molecule, the CC50 at 3 days in data set [1] was above 25000 nM. Also, the CC50 with MOLT-4 cells was at most 5000 nM; in the data set on RS4-11 cells, above 200 nM. For the same molecule, the EC50 in data set [2] was above 500 nM.
For the molecule `COc1cccc(CN(C(=O)c2cc(-c3cc(F)c(F)cc3C(=O)N3Cc4ccccc4C[C@H]3CN3CCOCC3)n(C)c2C)c2ccc(O)cc2)c1C` [Compound 51, 5-[4,5-difluoro-2-[(3S)-3-(morpholinomethyl)-3,4-dihydro-1H-isoquinoline-2-carbonyl]phenyl]-N-(4-hydroxyphenyl)-N-[(3-methoxy-2-methyl-phenyl)methyl]-1,2-dimethyl-pyrrole-3-carboxamide], the IC50 lay within 100 to 1000 nM at BCL-2 [G101V], 2000 to 5000 nM on BCL-xL and 10 to 50 nM at BCL-2. In data set [1], this molecule had a CC50 at 3 days above 25000 nM. Further, the CC50 in the data set on MOLT-4 cells is at most 5000 nM; in the data set with RS4-11 cells it was 100 to 200 nM. Also, in data set [2], the EC50 was 200 to 500 nM.
In the case of `COc1cccc(CN(C(=O)c2cc(-c3cc(F)ccc3C(=O)N3Cc4ccccc4C[C@H]3CN3CCOCC3)n(C)c2C)c2ccc(O)cc2)c1C` [Compound 52, 5-[5-fluoro-2-[(3S)-3-(morpholinomethyl)-3,4-dihydro-1H-isoquinoline-2-carbonyl]phenyl]-N-(4-hydroxyphenyl)-N-[(3-methoxy-2-methyl-phenyl)methyl]-1,2-dimethyl-pyrrole-3-carboxamide], the IC50 on BCL-2 [G101V] was at most 100 nM; on BCL-xL, 2000 to 5000 nM; on BCL-2 it was at most 5 nM. For the same molecule, in data set [1], the CC50 at 3 days is above 25000 nM. The CC50 is at most 5000 nM in the data set with MOLT-4 cells and at most 100 nM with RS4-11 cells. Also, the EC50 in data set [2] was 200 to 500 nM.
For the molecule `COc1ccccc1CN(C(=O)c1cc(-c2cc(F)ccc2C(=O)N2Cc3ccccc3C[C@H]2CN2CCOCC2)n(C)c1C)c1ccc(O)cc1` [Compound 54, 5-[5-fluoro-2-[(3S)-3-(morpholinomethyl)-3,4-dihydro-1H-isoquinoline-2-carbonyl]phenyl]-N-(4-hydroxyphenyl)-N-[(2-methoxyphenyl)methyl]-1,2-dimethyl-pyrrole-3-carboxamide], the IC50 is at most 100 nM on BCL-2 [G101V], at most 2000 nM at BCL-xL and 5 to 10 nM at BCL-2. The CC50 at 3 days in data set [1] is above 25000 nM. Besides, the CC50 in the data set with MOLT-4 cells is at most 5000 nM; in the data set with RS4-11 cells, 100 to 200 nM. Further, the EC50 in data set [2] is above 500 nM.
For the molecule `COc1cccc(CN(C(=O)c2cc(-c3cc([N+](=O)[O-])ccc3C(=O)N3Cc4ccccc4C[C@H]3CN3CCOCC3)n(C)c2C)c2ccc3[nH]ncc3c2)c1C` [Compound 65, N-(1H-indazol-5-yl)-N-[(3-methoxy-2-methyl-phenyl)methyl]-1,2-dimethyl-5-[2-[(3S)-3-(morpholinomethyl)-3,4-dihydro-1H-isoquinoline-2-carbonyl]-5-nitro-phenyl]pyrrole-3-carboxamide], the IC50 at BCL-2 [G101V] was above 1000 nM; at BCL-xL, above 5000 nM; on BCL-2 it was 10 to 50 nM. In data set [1], this molecule yielded a 50% cytotoxic concentration (CC50) at 3 days of 10000 to 25000 nM. The values for the CC50 with MOLT-4 cells and with RS4-11 cells were at most 5000 nM and above 200 nM, respectively. Further, the EC50 in data set [2] was above 500 nM.
